# Measured values reported in US20070129430A1, “Agent for enhancing the production of collagen, their preparation and use” (priority 2003, published 2007).
# Experiments:
# [1] = system: NHDF cells; test: collagen assay: collagen production level of NHDF cells (Sircol Soluble Collagen Assay Kit); assay type: cell-based, human; conditions: for action of enhancing collagen production (FIG. 1): 5 days culture; for action of enhancing the collagen production by L-ascorbic acid: used in combination with L-ascorbic acid; for concentration dependence of the action of enhancing collagen production (FIG. 3) / order of the levels of action of enhancing collagen production next to 10-HDA (FIG. 3): 0.02 to 1.5 mM fatty acid with 50 μM AA2G
# Procedure: NHDF cells, a human fibroblast, were seeded in a 96-well microplate (commercialized by Becton Dickinson, N.J., USA) with […] (designated as “DMEM medium” hereinafter, commercialized by Nissui Pharmaceutical Co., Ltd., Tokyo, Japan)(pH 7.1 to 7.4), supplemented with 10% (v/v) fetal calf serum and an adequate amount of penicillin, to give a cell density of 2.5×10^4 cells/well, and incubated at 37° C. for 24 hours under a 5% (v/v) CO2 condition. Thereafter, the supernatant was replaced with 200 μl of a DMEM medium supplemented with a sample having a prescribed concentration and/or 50 μM of L-ascorbic acid 2-glucoside (a product name of “AA2G” with a purity of 98.0% or over, produced by Hayashibara Biochemical Laboratories, Inc., Okayama, Japan), and further cultured for another five days. After completion of the culture, the collagen production level from cells in each well of the microplate was quantified by using “Sircol™ Soluble Collagen Assay Kit”, commercialized by Biocolar Ltd., Northern Ireland.
# The action of enhancing the collagen production by 10-HDA was examined by the collagen assay shown in Experiment 1. In the collagen assay, 150 μg/ml of 10-HDA and/or a DMEM medium containing 50 μM of the same AA2G as used in Experiment 1 were used to examine the action of enhancing the collagen production by 10-HDA. As a control, there were provided two systems with 50 μM of AA2G or a DMEM medium free of AA2G, both of which were free of sample. The results are in FIG. 1.
# The relationship between the concentration of 10-HDA and the action of enhancing collagen production was also studied. In the collagen assay, using a DMEM medium containing 0 to 300 μg/ml of 10-HDA as a sample and 50 μM of AA2G, the action of enhancing the collagen production by 10-HDA was examined. As a control, a DMEM medium containing 50 μM of AA2G free of sample was provided. The results are in FIG. 2.
# The results are in FIG. 3.
# To examine the influence of 10-HDA on the action of enhancing the collagen production by L-ascorbic acid or AA2G, the following experiment was conducted: In the collagen assay shown in Experiment 1, the levels of collagen production in cell culture by L-ascorbic acid or 10-HDA were compared and analyzed using a DMEM medium containing as a sample 0, 0.1, 0.2 or 0.5 mg/ml of 10-HDA and 50 μM of L-ascorbic acid or AA2G as L-ascorbic acids in terms of L-ascorbic acid, and another DMEM medium containing as a sample 0, 0.1, 0.2 or 0.5 mg/ml of 10-HDA but free of L-ascorbic acids. The results are in FIG. 4.
# [2] = system: TGF-β production in human fibroblasts (NHDF cells); test: TGF-β production in human fibroblasts (TGF-β1 Emax ImmunoAssay System); assay type: cell-based; conditions: for TGF-β production level: 24 hours, culture supernatant; for enhancement of TGF-β production: concrete data not shown
# Procedure: NHDF cells, a human fibroblast, commercialized by Kurabo Industries Ltd., Okayama, Japan, were seeded in 96-well microplates (commercialized by Becton Dickinson, N.J., USA) with a DMEM medium supplemented with 10% (v/v) fetal calf serum to give a cell density of 2.5×10^4 cells/well, and incubated for 24 hours under a 5% (v/v) CO2 condition. Thereafter, the supernatant in each microplate was removed, replaced with a fresh DMEM medium containing 0, 0.5 or 1.5 mM of 10-HDA and 0.2 μg/ml of AA2G, and cultured for 24 hours. After completion of the culture, the level of TGF-β in a supernatant of each well of the microplates was quantified by using “TGF-β1 E MAX IMMUNO ASSAY SYSTEM”, commercialized by Promega Corp., Wis., USA, and the data were statistically handled.
structure (smiles),measurement,setting,value
"O=C(O)C=CCCCCCCCO [10-HDA, 10-hydroxy-2-decenoic acid]",action of enhancing collagen production (FIG. 4),"[1]; 0, 0.1, 0.2 or 0.5 mg/ml 10-HDA in the presence of 50 μM AA2G (in terms of L-ascorbic acid)",action of enhancing collagen production in a concentration dependent manner
same,action of enhancing collagen production (FIG. 4),"[1]; 0, 0.1, 0.2 or 0.5 mg/ml 10-HDA in the presence of 50 μM L-ascorbic acid",action of enhancing collagen production in a concentration dependent manner
same,concentration dependence of the action of enhancing collagen production (FIG. 2),[1]; 0 to 300 μg/ml 10-HDA with 50 μM AA2G,concentration-dependent action of enhancing collagen production
same,action of enhancing collagen production (FIG. 1),[1]; 150 μg/ml 10-HDA in combination with 50 μM AA2G,distinct action of enhancing collagen production
same,action of enhancing collagen production (FIG. 1),"[1]; 150 μg/ml 10-HDA, absence of AA2G",did not show the action of enhancing collagen production
same,action of enhancing collagen production (FIG. 3),"[1]; 0.02, 0.06, 0.17, 0.5 or 1.5 mM fatty acid with 50 μM AA2G",significantly high action of enhancing collagen production
same,action of enhancing collagen production with AA2G relative to that attained with L-ascorbic acid (FIG. 4),[1]; 10-HDA with 50 μM AA2G versus 50 μM L-ascorbic acid,about two-times higher
same,action of inducing collagen production when used alone,"[1]; used alone, without L-ascorbic acid",did not show an action of inducing collagen production
same,action of enhancing the collagen production by L-ascorbic acid,[1],exhibited an action of enhancing the collagen production by L-ascorbic acid
same,action of enhancing the collagen production by L-ascorbic acid,[1]; listed as Ingredient X,This result coincided with that of Ingredient X
same,concentration giving maximum action of enhancing collagen production (FIG. 3),[1]; with 50 μM AA2G,≥ 0.17 mM
same,TGF-β production level,[2]; 0.5 mM 10-HDA with 0.2 μg/ml AA2G,292 ± 68 pg/mL
same,TGF-β production level,[2]; 1.5 mM 10-HDA with 0.2 μg/ml AA2G,378 ± 74 pg/mL
same,enhancement of TGF-β production in human fibroblasts,"[2]; in the presence of AA2G, 0 to 1.5 mM",enhances the TGF-β production in human fibroblasts in a concentration dependent manner
O=C(O)CCCCCCCCC(=O)O [sebacic acid],enhancement of TGF-β production,[2],also enhance TGF-β production
CCCCCCCCCC(=O)O [decanoic acid],enhancement of TGF-β production,[2],also enhance TGF-β production
O=C(O)CCCCCCCCCO [10-hydroxydecanoic acid],concentration dependence of the action of enhancing collagen production (FIG. 3),[1],roughly in a concentration dependent manner
same,order of the levels of action of enhancing collagen production next to 10-HDA (FIG. 3),[1],"in the order of 10-hydroxydecanoic acid, 2-decenoic acid, decanoic acid, and sebacic acid"
same,enhancement of TGF-β production,[2],also enhance TGF-β production
"O=C1O[C@H]([C@@H](O)CO)C(O)=C1O[C@H]1O[C@H](CO)[C@@H](O)[C@H](O)[C@H]1O [AA2G, L-ascorbic acid 2-glucoside]",action of enhancing collagen production of L-ascorbic acid derivatives used in combination with fatty acids,"[1]; in combination with fatty acids such as 10-HDA, concrete data not shown",more remarkable action of enhancing collagen production
CCCCCCCC=CC(=O)O [2-decenoic acid],concentration dependence of the action of enhancing collagen production (FIG. 3),[1],roughly in a concentration dependent manner
same,order of the levels of action of enhancing collagen production next to 10-HDA (FIG. 3),[1],"in the order of 10-hydroxydecanoic acid, 2-decenoic acid, decanoic acid, and sebacic acid"
same,enhancement of TGF-β production,[2],also enhance TGF-β production
